The text below walks through data of patent US12692283B2, “Lignan derivative, preparation method therefor and use thereof” (SHANGHAI INSTITUTE OF MATERIA MEDICA, CHINESE ACADEMY OF …, priority 2021, dated 2026).

Molecules are shown by their SMILES.

One data set concerns OCI-AML3 cells. In words: Viability of human acute myeloid leukemia cells OCI-AML3 (CCK8). Format: cell-based. As to conditions: OCI-AML-3, 72 h, incubation 3 days. Here is the method: OCI-AML3 cells, suspension cells, were cultured in RPIM1640+10% FBS+1% PS culture medium at 37° C. and 5% CO2. OCI-AML3 was seeded in a 96-well plate at 20,000 cells/well, and different concentrations of compounds were added (40 μM was the highest concentration, diluted according to ¼, a total of 7 concentrations). After incubation for 3 days, 10 μl CCK8 reagent was added to each well. After incubation for 2 hours, OD450 was detected by a microplate reader, then the effect of the compound on cell viability, IC50 value was calculated.

A further data set has as its system NB-1 cells. The experiment in a line: Viability of human neuroblastoma cells NB-1 (CCK8). The format is cell-based. The settings on record: NB1, 72 h, incubation 3 days. Here is the method:
NB-1 cells, suspension cells, were cultured in RPIM1640+10% FBS+1% PS culture medium at 37° C. and 5% CO2. NB-1 was seeded in a 96-well plate at 20,000 cells/well, and different concentrations of compounds were added (40 μM was the highest concentration, diluted according to ¼, a total of 7 concentrations). After incubation for 3 days, 10 μL CCK8 reagent was added to each well. After incubation for 2 hours, OD450 was detected by a microplate reader, then the effect of the compound on cell viability, IC50 value was calculated.

Data set [1] deals with Mitochondrial Respiratory Complex I (Complex I) (Mus musculus, UniProt P03888+Q91WD5+Q9DC70). The experiment in a line: Inhibitory activity on mitochondrial respiratory Complex I (NADH activity, mitochondria from mouse heart tissue). Format: biochemical. As to conditions: NADH 50 μM, read at 340 nm, 30 μg mouse heart mitochondrial protein. The protocol:
Mitochondria were extracted from mouse heart tissue. […] of solution A (0.22M mannitol, 0.07M sucrose, 0.02M HEPES, 2 mM Tris-HCl, 1 mM EDTA, pH 7.2, 0.4% BSA) was added to the heart tissue. The tissue was cut up and then washed three times with solution A to remove blood and connective tissue, then homogenized using a glass homogenizer about 30 times. The suspension was centrifuged at 3000 g for 1.5 min, and the supernatant was retained. The precipitate was resuspended in solution A with protease inhibitor and re-centrifuged to collect the supernatant. The supernatants from two collections were mixed for the next step. The supernatant was centrifuged at 17500 g for 2.5 min and the supernatant was discarded. The precipitate was resuspended in solution A with protease inhibitor, centrifuged at 17500 g for 4.5 min, resuspended in solution B (2.5 mM potassium phosphate, 5 mM MgCl2 pH 7.2) and repeatedly frozen and thawed to obtain a solution of the mitochondrial complex for subsequent assay. To measure the NADH activity of Complex I, 2.5 mL of reaction solution containing 50 mM HEPES, 5 mM MgCl2 pH 7.5 and 30 μg of mitochondrial protein from the above process was prepared. The compound to be detected was added and equilibrated for 5 minutes, and then was dispensed into each well. Finally, NADH (50 μM) was quickly added, and data at […] were read every 30 sec for a total of 15 minutes. Calculation: the NADH reaction rates for different compounds were calculated, then the inhibition rate (compound reaction rate/control reaction rate×100) was calculated, and the IC50 value of the compound was finally calculated.

Another data set concerns MLO-Y4 senescent cells. In words: Viability of doxorubicin-induced senescent MLO-Y4 mouse osteoid cells (MTT). Format: cell-based. The settings on record: MLO-Y4, 72 h, senescent cells induced by 100 nM doxorubicin, co-incubation 3 days, read-out: MOL-Y4 IC50. The protocol:
MOL-Y4 cells were cultured in MEM culture medium (supplemented with 10% FBS, 1% PS).
(§1) The experimental steps for testing the effects of compounds on the viability of MOL-Y4 senescent cells were as follows. MOL-Y4 cells were seeded in a 96-well plate at 20,000 cells/well. After overnight, 100 nM doxorubicin was added to each well and incubated for 3 days. Then the medium was replaced with normal culture medium. After 1 day of incubation, the culture medium was replaced with 100 nM doxorubicin and incubated for 3 days to successfully induce senescence of MOL-Y4 cells. Subsequently, different concentrations of compounds were added (40 μM was the highest concentration, and diluted according to ¼, a total of 7 concentrations), and after co-incubation for 3 days, 10 μl of MTT (5 mg/ml) was added to each well and incubated for 4 hours. DMSO (150 μl) was added to each well after aspirating the culture medium.

The nature of data set [2]: Oral pharmacokinetics of Compound A4-1a and Arctigenin in ICR mice (plasma, liver, colon). As to conditions: oral 30 mg/kg, 1-8 h. Format: in vivo, mouse. The protocol:
Arctigenin and Compound A4-1a were administered orally at 30 mg/kg to overnight-fasted ICR mice (male, n=3/time point), respectively. The mice were fed 2 hours after administration. Samples were collected before administration and 1 h, 2 h, 4 h, and 8 h after administration. Blood was collected in centrifuge tubes pretreated with heparin sodium and bis(4-nitrophenyl)phosphate (BNPP). After centrifugation at 11,000 rpm for 5 min at 4° C., plasma was obtained and stored at −80° C. Next, 100 […] of plasma sample, precipitated, vortexed for 1 min, and centrifuged (11,000 rpm) for 5 min. A mixture of 20 […] of methanol/acetonitrile (1:1, v/v) was taken to analyze the concentration of the compound by LC-MS/MS. Liver tissue was stored at −80° C. until analysis. After removal of contents, the colon was quickly washed with cold saline containing BNPP and stored at −80° C. until analysis. Analysis method: After 10 times the weight of MeOH/ACN (1:1, v/v) was added to the tissue samples, the homogenate was obtained by homogenizing for 120 s with a homogenizer at 50 Hz and then centrifuged (11000 rpm) for 5 min, and the supernatant was collected. 20 μL of the supernatant was redissolved in 20 μL of ACN/H2O (1:1, v/v), and the compound concentration was analyzed in LC-MS/MS.

The test system of another data set is WI-38 senescent cells. The experiment in a line: Viability of doxorubicin-induced senescent WI-38 human fibroblasts (MTT). The format is cell-based. As to conditions: WI-38, 72 h, senescent cells induced by 200 nM doxorubicin, co-incubation 3 days. Here is the method:
WI-38 cells were cultured in DMEM (high glucose, 4.5 g/L) culture medium (supplemented with 10% FBS, 1% PS).
as §1, with “experimental testing” for “experimental”, “for” for “for testing”, “WI-38” for “MOL-Y4”, “200” for “100”

Data set [3] deals with mitochondrial respiratory chain complex I. The settings on record: ACS Chemical Biology, 2013, 8 (1), 257-267; cited from earlier work.
For data set [4] the following is noted: Acta Pharmacologica Sinica, 2018, 39, 787-801, cited from earlier work.

Mitochondrial Respiratory Complex I (Complex I), sequence (P03888 whole entry): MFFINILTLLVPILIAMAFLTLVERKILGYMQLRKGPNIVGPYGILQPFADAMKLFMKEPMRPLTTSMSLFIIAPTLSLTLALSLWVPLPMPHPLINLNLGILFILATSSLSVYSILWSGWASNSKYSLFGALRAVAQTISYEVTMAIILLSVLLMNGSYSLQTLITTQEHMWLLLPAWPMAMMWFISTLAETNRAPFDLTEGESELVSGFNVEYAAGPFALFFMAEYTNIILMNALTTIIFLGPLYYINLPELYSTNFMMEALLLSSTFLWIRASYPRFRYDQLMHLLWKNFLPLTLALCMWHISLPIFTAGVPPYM
Mitochondrial Respiratory Complex I (Complex I), sequence (Q91WD5 34-463): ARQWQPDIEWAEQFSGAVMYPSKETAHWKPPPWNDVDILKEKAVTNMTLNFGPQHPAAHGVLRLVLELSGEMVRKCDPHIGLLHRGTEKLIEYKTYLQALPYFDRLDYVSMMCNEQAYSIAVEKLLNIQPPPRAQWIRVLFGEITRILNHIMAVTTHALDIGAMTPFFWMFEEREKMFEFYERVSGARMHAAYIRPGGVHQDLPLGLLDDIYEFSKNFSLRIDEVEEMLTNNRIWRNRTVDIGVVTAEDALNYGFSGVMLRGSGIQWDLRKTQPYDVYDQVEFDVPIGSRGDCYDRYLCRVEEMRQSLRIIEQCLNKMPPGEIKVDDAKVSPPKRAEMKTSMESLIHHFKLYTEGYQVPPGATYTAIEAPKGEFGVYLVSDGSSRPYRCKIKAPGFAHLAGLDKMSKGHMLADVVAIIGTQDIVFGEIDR
Mitochondrial Respiratory Complex I (Complex I), sequence (Q9DC70 36-224): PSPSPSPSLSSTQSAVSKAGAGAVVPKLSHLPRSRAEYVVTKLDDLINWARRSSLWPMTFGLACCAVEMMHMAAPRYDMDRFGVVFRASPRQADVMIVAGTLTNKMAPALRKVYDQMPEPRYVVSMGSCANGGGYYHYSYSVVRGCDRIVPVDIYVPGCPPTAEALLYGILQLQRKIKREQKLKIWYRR

As for `COc1cc(C[C@@]2(CO)C(=O)OC[C@@H]2Cc2ccc(OC)c(OC)c2)ccc1O` [Compound A4-1i], the IC50 in the data set on OCI-AML3 cells came to 91 nM; in the data set on NB-1 cells, 433 nM.

As for `COc1ccc(C[C@H]2COC(=O)[C@]2(C)Cc2ccc(O)c(OCC(O)c3ccc(C(F)(F)F)cc3)c2)cc1OC` (stereo partly shown) [Compound B11-1c], the half-maximal inhibitory concentration (IC50) in the data set on OCI-AML3 cells amounted to 289 nM; in the data set on NB-1 cells, 446 nM.

Regarding `COc1ccc(C[C@H]2COC(=O)[C@@H]2Cc2ccc(O)c(OCC(O)c3ccc(C(F)(F)F)cc3)c2)cc1OC` (stereo partly shown) [Compound B9-1x], 650 nM corresponded to half-maximal inhibition in data set [1] (IC50).

As to `COc1cc(C[C@@]2(C)C(=O)OC[C@@H]2Cc2ccc(OC)c(OC)c2)ccc1O` [Compound A4-1a, (3R,4R)-4-(3,4-dimethoxybenzyl)-3-(4-hydroxy-3-methoxybenzyl)-3-methyldihydrofuran-2 (3H)-one], the concentration for half-maximal inhibition (IC50) in the data set on OCI-AML3 cells was 81 nM; in the data set with NB-1 cells it was 424 nM; in data set [1] it was 507 nM; in the data set on MLO-Y4 senescent cells, 40 nM; in the data set with WI-38 senescent cells, 38 nM. In addition, the “drug concentrations in plasma and tissues compared with Arctigenin” value in data set [2] was “significantly higher drug concentrations in plasma and tissues”.

As for `COc1ccc(C[C@H]2COC(=O)[C@@H]2Cc2ccc(O)c(OCc3ccccc3)c2)cc1OC` [Compound B9-1p], the IC50 in data set [1] is 465 nM.

For `COc1ccc(C[C@H]2COC(=O)[C@@H]2Cc2ccc(O)c(OCCc3ccccc3)c2)cc1OC` [Compound B9-1a, (3R,4R)-4-(3,4-dimethoxybenzyl)-3-(4-hydroxy-3-phenylethoxybenzyl)dihydrofuran-2 (3H)-one], half-maximal inhibition in data set [1] (IC50) required 54 nM.

Take `COc1ccc(C[C@H]2COC(=O)[C@@H]2Cc2ccc(O)c(OCCc3ccc(C(F)(F)F)cc3)c2)cc1OC` [Compound B9-1q]: the concentration for half-maximal inhibition (IC50) in data set [1] worked out at 64 nM.

On to `COc1cc(C[C@@]2(F)C(=O)OC[C@@H]2Cc2ccc(OC)c(OC)c2)ccc1O` [Compound A4-1c], for which inhibition in data set [1] was half-maximal at 185 nM (IC50).

In the case of `CC1(C)CCC(c2ccc(Cl)cc2)=C(CN2CCN(c3ccc(C(=O)NS(=O)(=O)c4ccc(N[C@H](CCN5CCOCC5)CSc5ccccc5)c(S(=O)(=O)C(F)(F)F)c4)cc3)CC2)C1` [ABT263, reference compound], the half-maximal inhibitory concentration (IC50) with MLO-Y4 senescent cells is 235 nM; with WI-38 senescent cells, 5600 nM.

With `COc1ccc(C[C@H]2COC(=O)[C@]2(C)Cc2ccc(O)c(OCC(F)(F)F)c2)cc1OC` [Compound B11-1b], the IC50 with OCI-AML3 cells was 47 nM; with NB-1 cells it was 626 nM; in data set [1], 668 nM.

For `COc1ccc(C[C@H]2COC(=O)[C@@H]2Cc2ccc(O)c(OCC(O)c3ccccc3)c2)cc1OC` (stereo partly shown) [Compound B9-1u], the half-maximal inhibitory concentration (IC50) in data set [1] is 564 nM.

Take `COc1ccc(C[C@H]2COC(=O)[C@]2(C)Cc2ccc(OC)c(OC)c2)cc1OC` [Compound B11-1h]: the midpoint of inhibition in data set [1], the IC50, lay at 13200 nM.

`[2H]C([2H])([2H])Oc1cc(C[C@H]2C(=O)OC[C@@H]2Cc2ccc(OC)c(OC)c2)ccc1O` [Compound B9-1d]: the half-maximal inhibitory concentration (IC50) with OCI-AML3 cells stood at 602 nM; in data set [1], 696 nM.

As for `COc1cc(C[C@@]2(CCl)C(=O)OC[C@@H]2Cc2ccc(OC)c(OC)c2)ccc1O` [Compound A4-1e], the IC50 in data set [1] was 473 nM; in the data set on MLO-Y4 senescent cells, 150 nM; in the data set with WI-38 senescent cells, 1000 nM.

In data set [1], `COc1cc(C[C@H]2COC(=O)[C@]2(C)Cc2ccc(O)c(OC)c2)ccc1O` [Compound B11-1e] came in with a half-maximal inhibitory concentration (IC50) of 1370 nM.

As for `COc1cc(C[C@@]2(C)C(=O)OC[C@@H]2Cc2ccc3c(c2)OCO3)ccc1O` [Compound B11-1f], the IC50 in data set [1] came out at 420 nM.

In the case of `COc1cc(C[C@]2(F)C(=O)OC[C@@H]2Cc2ccc(OC)c(OC)c2)ccc1O` [Compound A4-1b], in data set [1], half-maximal inhibition (IC50) required 1270 nM.

`COc1ccc(C[C@H]2COC(=O)[C@@H]2Cc2ccc(O)c(OCCCc3ccccc3)c2)cc1OC` [Compound B9-1v]: the IC50 in data set [1] amounted to 34 nM.

With `COc1ccc(C[C@H]2COC(=O)[C@@H]2Cc2ccc(O)c(OCCn3cccc3)c2)cc1OC` [Compound B9-1r], in data set [1], the midpoint of inhibition, the IC50, lay at 316 nM.

Take `COc1cc(C[C@H]2C(=O)OC[C@@H]2Cc2ccc(OC)c(OC)c2)ccc1O` [Arctigenin]: the figures for the half-maximal inhibitory concentration (IC50) with OCI-AML3 cells and with NB-1 cells were 589 nM and 2380 nM, respectively. Moreover, in data set [3], the “inhibition of mitochondrial respiratory chain complex I” value was “moderately potent and selective inhibitor”. In addition, the “metabolism after oral administration” value in data set [4] was “easily metabolized after oral administration”. Moreover, in data set [4] (oral), the bioavailability result is on record as “low bioavailability”. Further, the pharmacokinetic properties entry in data set [4] (oral) is “poor pharmacokinetic properties”.

On to `COc1cc(C[C@@]2(Cl)C(=O)OC[C@@H]2Cc2ccc(OC)c(OC)c2)ccc1O` [Compound A4-1d], for which the IC50 was determined as 169 nM with OCI-AML3 cells and 546 nM in the data set with NB-1 cells.

The compound `COc1ccc(C[C@H]2COC(=O)[C@]2(C)Cc2ccc(O)c(OCCc3ccccc3)c2)cc1OC` [Compound B11-1a, (3R,4R)-4-(3,4-dimethoxybenzyl)-3-(4-hydroxy-3-phenylethoxybenzyl)-3-methyldihydrofuran-2 (3H)-one] registered an IC50 in data set [1] of 646 nM.

As to `COc1ccc(C[C@H]2COC(=O)[C@@H]2Cc2ccc(O)c(OCC(F)(F)F)c2)cc1OC` [Compound B9-1e], the concentration for half-maximal inhibition (IC50) in the data set with OCI-AML3 cells was 274 nM; in the data set with NB-1 cells, 175 nM.

A word on the IC50: it is the concentration at which inhibition is half-maximal.
